Experimental data: patent US20200375987A1, “METALLO-BETA-LACTAMASE INHIBITORS AND METHODS OF USE THEREOF” (priority 2018, published 2020)

Tests used:
[1] = tested on: P. aeruginosa MB9798 (efflux WT, IMP-1); assay: Efflux: concentration of MBL inhibitor restoring susceptibility to imipenem (MITC95), efflux+ strain; type: cell-based, Pseudomonas aeruginosa; conditions: imipenem at 2 μg/mL in the presence of a class A, C, D serine β-lactamase inhibitor closely related to relebactam
Source text: (§1) In order to assess the contribution of efflux to lack of whole cell inhibition of metallo-beta-lactamase inhibitors of formula I, tool strains were constructed. The strain background is Pseudomonas aeruginosa PAO1. A wild-type (MB5919) and an isogenic strain in which multiple efflux pumps have been disrupted genetically were used. The MBL IMP-1, obtained from a clinical isolate was introduced into the strain pair by the following process:
(§2) Plasmid DNA (encoding IMP-1) was extracted from CL 5673 (IMP-1, P. aeruginosa clinical strain) by standard techniques. The plasmid DNA was transformed into parental MB5919 (oprD+, efflux+, inducible AmpC) and MB5890 (oprD+, efflux−, inducible AmpC) isogenic strains by electroporation. These transformed strains were plated onto cation-adjusted Muller-Hinton agar plates containing ceftazidime at 32 μg/mL (MB5919) and 16 μg/mL (MB5890) to select for those cells in which the IMP-1-expressing plasmid was introduced successfully, resulting in resistance to ceftazidime. Agarose-gel electrophoresis of PCR product for IMP-1 from the successful transformants was used to compare to control and to the original strain from which the plasmid was obtained, confirming transfer of the IMP-1 gene (data not shown).
(§3) The strain set was then used as a pair to determine the effect of metallo-β-lactamase inhibitors of Formula Ion the MIC of imipenem and/or ceftazidime. A fixed concentration of antibiotic is included in standard microbroth MIC tests, usually at the CLSI breakpoint concentration. A fixed amount of a class A/C beta-lactamase inhibitor is also included to inhibit the resident Pseudomonas AmpC enzyme. A serial titration of the metallo-β-lactamase inhibitor was included and the concentration of metallo-β-lactamase inhibitor which restores susceptibility of the strain to the included antibiotic was recorded. That concentration of metallo-β-lactamase inhibitor was then compared between the two strains to determine the fold difference between the efflux+(MB9798) and efflux−(MB9799) strains, which indicates n the extent to which the MBLi is subject to efflux.

IMP-1 = IMP-1 (Serratia marcescens, UniProt P52699); assay: Enzyme activity: determination of IC50, fluorescence assay with CCF2-FA substrate (IMP-1); type: biochemical; conditions: 2 pM enzyme, 1.25 μM CCF2-FA, 2 hours at 25° C.; read-out: IMP1 IC50
Sequence of IMP-1 (P52699 19-246, looked up, species assumed): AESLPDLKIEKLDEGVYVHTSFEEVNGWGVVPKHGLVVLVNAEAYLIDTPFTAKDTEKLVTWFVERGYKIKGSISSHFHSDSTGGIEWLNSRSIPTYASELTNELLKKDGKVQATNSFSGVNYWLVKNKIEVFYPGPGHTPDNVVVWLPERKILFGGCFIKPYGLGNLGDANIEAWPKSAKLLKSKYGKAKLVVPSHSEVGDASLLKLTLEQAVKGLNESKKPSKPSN
Procedure: (§4) The Class B enzyme activities were measured in the presence of the test inhibitor in a fluorescence assay against a commercially available substrate consisting of a cephalosporin core linking 7-hydroxycoumarin to fluorescein (CCF2-FA). The enzyme (NDM-1, IMP-1 or VIM-1) and the substrate were diluted in 100 mM KH2PO4 buffer (pH 7) containing 0.005% Tween-20 and 10 μM ZnSO4. In the assay, the final concentration of enzyme was 1 pM, 2 pM and 30 pM for NDM-1, IMP-1 and VIM-1, respectively, and the final concentration of CCF2-FA was 1.25 μM. The test inhibitor was dissolved in dimethylsulfoxide and diluted 1:50 in the assay, resulting in a final concentration range of 20 μM to 0.00063 μM. In a 384-well microplate, the test inhibitor was incubated with the metallo-β-lactamase enzyme and the substrate for 2 hours at 25° C. Fluorescence at 460 nm following excitation at 405 nm was measured. The IC50 value was determined from semi-logarithmic plots of enzyme inhibition versus inhibitor concentration, with a curve generated using a 4-parameter fit.

NDM-1 = NDM-1 (Klebsiella pneumoniae, UniProt C7C422); assay: Enzyme activity: determination of IC50, fluorescence assay with CCF2-FA substrate (NDM-1); type: biochemical; conditions: 1 pM enzyme, 1.25 μM CCF2-FA, 2 hours at 25° C.; read-out: NDM1 IC50
Sequence of NDM-1 (C7C422 29-270, looked up, species assumed): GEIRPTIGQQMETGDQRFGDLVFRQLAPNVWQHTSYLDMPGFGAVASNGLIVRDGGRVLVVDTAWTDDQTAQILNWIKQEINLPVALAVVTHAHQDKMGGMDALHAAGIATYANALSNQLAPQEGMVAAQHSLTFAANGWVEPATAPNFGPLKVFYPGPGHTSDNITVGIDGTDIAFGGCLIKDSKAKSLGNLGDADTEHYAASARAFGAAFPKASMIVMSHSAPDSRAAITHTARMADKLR
Procedure: as §4

[2] = tested on: P. aeruginosa MB9799 (efflux mutant, IMP-1); assay: Efflux: concentration of MBL inhibitor restoring susceptibility to imipenem (MITC95), efflux− strain; type: cell-based, Pseudomonas aeruginosa; conditions: imipenem at 2 μg/mL in the presence of a class A, C, D serine β-lactamase inhibitor closely related to relebactam
Source text: as §1, §2, §3

VIM-1 = VIM-1 (Pseudomonas aeruginosa, UniProt A0A0F7KYQ8); assay: Enzyme activity: determination of IC50, fluorescence assay with CCF2-FA substrate (VIM-1); type: biochemical; conditions: 30 pM enzyme, 1.25 μM CCF2-FA, 2 hours at 25° C.; read-out: VIM1 IC50
Procedure: as §4

[3] = tested on: Escherichia coli expressing NDM-1 (CLB30016); assay: Antibiotic potentiation activity: synergistic concentration (MITC95) with imipenem; type: cell-based; conditions: imipenem 1 μg/mL; lowest concentration inhibiting 95% of growth; 35° C., 22-24 hours
Procedure: (§5) The bacterial strains tested included the clinical strains Escherichia coli expressing NDM-1 (CLB30005, CLB30016), Serratia marcescens expressing IMP-1 (CL5741), and Klebsiella pneumoniae expressing VIM-1 (IHMA599644). Inhibitor activity was measured in the presence and absence of imipenem in a 384-well microplate.
(§6) The clinical strains CLB30016, CL5741 and IHMA599644 were grown on trypticase soy agar containing 5% sheep's blood. The bacteria on agar plates were incubated at 35° C. with humidity overnight. The following day, individual colonies from each clinical strain were picked and resuspended in 5 mL saline to attain an OD600 of 0.14, 0.11, 0.15 and 0.13, for CLB30016, CL5741 and IHMA599644, respectively. These were further diluted 1:100 into 1.1× CAMHB and used to inoculate the test wells as described below.
(§7) Imipenem in 10 mM 3-(N-morpholino)propanesulfonic acid (MOPS, pH 7) was stored in single use aliquots at −80° C. […] On the day of the assay, 4 μl of antibiotic was added to 45 μl of bacteria followed by 1 μl of test compound and mixed by pipetting and with an orbital shaker. The concentration of antibiotic used in the assay was 1 μg/mL. Microplates were covered and incubated at 35° C. for 22 hours to 24 hours. At the end of the incubation, absorbance was determined using a spectrophotometer. The synergistic concentration of MBLI was determined by identifying the lowest concentration of test compound in the presence of a given concentration of antibiotic that was required to inhibit 95% of the growth of the bacteria. The results for Examples 1-209 are reported in Table 1, expressed as the concentration of compound that potentiated the action of antibiotic (imipenem) affecting 95% inhibition of bacterial growth (MITC95).

[4] = tested on: Serratia marcescens expressing IMP-1 (CL5741); assay: as above; type: cell-based; conditions: imipenem 1 μg/mL; lowest concentration inhibiting 95% of growth; 35° C., 22-24 hours
Procedure: as §5, §6, §7

[5] = tested on: Klebsiella pneumoniae expressing VIM-1 (IHMA599644); assay: as above; type: cell-based; conditions: imipenem 1 μg/mL; lowest concentration inhibiting 95% of growth; 35° C., 22-24 hours
Procedure: as §5, §6, §7

VIM-2 = VIM-2 (Escherichia coli, UniProt Q5U7L7); assay: Enzyme activity: determination of IC50 (VIM-2); type: biochemical; conditions: read-out: VIM2 IC50

Structure (SMILES)	MB9798 MITC95 P. aeruginosa Efflux WT [1] [µM]	IC50 (IMP-1) [nM]	IC50 (NDM-1) [nM]	MB9799 MITC95 P. aeruginosa Efflux Mutant [2] [µM]	IC50 (VIM-1) [nM]	CLB30016 E.coli MITC95 NDM [3] [µM]	CL5741 S.marcescens MITC95 uM IMP [4] [µM]	IHMA599644 K.pneumoniae MITC95 uM VIM [5] [µM]	IC50 (VIM-2) [nM]
NC[C@@H](O)CNS(=O)(=O)c1ccc(N2CCCn3ccnc32)c(-c2nnn[nH]2)c1S(N)(=O)=O [Example 16, (R)-N1-(3-amino-2-hydroxypropyl)-4-(6,7-dihydroimidazo[1,2-a]pyrimidin-8(5H)-yl)-3-(1H-tetrazol-5-yl)benzene-1,2-disulfonamide]	3.13	5.93	1.2	0.78	0.38	0.10	0.39	1.56	1.01
C[C@H](CN)NS(=O)(=O)c1ccc(N2CCCn3ccnc32)c(-c2nnn[nH]2)c1S(N)(=O)=O [Example 17, (R)-N1-(1-aminopropan-2-yl)-4-(6,7-dihydroimidazo[1,2-a]pyrimidin-8(5H)-yl)-3-(1H-tetrazol-5-yl)benzene-1,2-disulfonamide]	1.56	2.17	0.36	0.78	0.22	0.78	0.78	1.56	1.11
NC[C@H](O)CNS(=O)(=O)c1ccc(N2CCCn3ccnc32)c(-c2nnn[nH]2)c1S(N)(=O)=O [Example 18, (S)-N1-(3-amino-2-hydroxypropyl)-4-(6,7-dihydroimidazo[1,2-a]pyrimidin-8(5H)-yl)-3-(1H-tetrazol-5-yl)benzene-1,2-disulfonamide]	3.13	8.07	1.87	0.78	0.76	0.10	0.39	1.56	1.99
NC[C@@H](O)CNS(=O)(=O)c1ccc(N2CCn3ccnc32)c(-c2nnn[nH]2)c1S(N)(=O)=O [Example 19, (R)—N1-(3-amino-2-hydroxypropyl)-4-(2,3-dihydro-1H-imidazo[1,2-a]imidazol-1-yl)-3-(1H-tetrazol-5-yl)benzene-1,2-disulfonamide]	6.25	12.1	1.03	1.56	5.96	0.20	0.78	3.13	9.8
NCCNS(=O)(=O)c1ccc(N2CCn3ccnc32)c(-c2nnn[nH]2)c1S(N)(=O)=O [Example 20, N1-(2-aminoethyl)-4-(2,3-dihydro-1H-imidazo[1,2-a]imidazol-1-yl)-3-(1H-tetrazol-5-yl)benzene-1,2-disulfonamide]	6.25	9.68	1.7	0.78	12.4	0.39	0.78	3.13	15.1
NS(=O)(=O)c1c(S(=O)(=O)N[C@@H]2CCNC2)ccc(N2CCCc3ccncc32)c1-c1nnn[nH]1 [Example 21, 4-(3,4-dihydro-1,7-naphthyridin-1(2H)-yl)-N1-[(3R)-pyrrolidin-3-yl]-3-(1H-tetrazol-5-yl)benzene-1,2-disulfonamide]	3.13	2.46	0.21	1.56	0.22	0.20	0.78	6.25	1.24
NS(=O)(=O)c1c(S(=O)(=O)N[C@@H]2CCNC2)ccc(N2Cc3cccnc3C2)c1-c1nnn[nH]1 [Example 22, 4-(5,7-dihydro-6H-pyrrolo[3,4-b]pyridin-6-yl)-N1-[(3R)-pyrrolidin-3-yl]-3-(1H-tetrazol-5-yl)benzene-1,2-disulfonamide]	3.13	0.17	0.62	1.56	0.59	0.78	3.13	6.25	2.31
NS(=O)(=O)c1c(S(=O)(=O)N[C@@H]2CCNC2)ccc(N2CCc3cccnc3C2)c1-c1nnn[nH]1 [Example 23, 4-(5,8-dihydro-1,7-naphthyridin-7(6H)-yl)-N1-[(3R)-pyrrolidin-3-yl]-3-(1H-tetrazol-5-yl)benzene-1,2-disulfonamide]	50.00	43.9	24.3	6.25	21	3.13	12.50	12.50	39
